From patent publication US7998989B2, “2-Imino-1,3-thiazoline-based compounds and T-type calcium channel inhibitors containing the same” (Korea Institute of Science and Technology, priority 2007, dated 2011)

SMILES | melting point
CN1C(=NC2CCCCC2)SCC1CC(=O)NCc1ccccc1.Cl (stereo not shown) | 206 to 206.5 °C
COc1ccc(NC(=O)CC2CSC(=NC3CCCC3)N2C)cc1.Cl (stereo not shown) | 210 to 211 °C
CN1C(=NC2CCCC2)SCC1CC(=O)Nc1ccc(CC#N)cc1.Cl (stereo not shown) | 199.5 to 200 °C
Cc1ccc(NC(=O)CC2CSC(=NC3CCCC3)N2C)c(Cl)c1.Cl (stereo not shown) | 185 to 186.5 °C
Cc1ccc(NC(=O)CC2CSC(=NC3CCCC3)N2C)c(F)c1.Cl (stereo not shown) | 189 to 190 °C
CN1C(=NC2CCCC2)SCC1CC(=O)Nc1ccc(F)cc1F.Cl (stereo not shown) | 240 to 242.5 °C
CN1C(=NC2CCCC2)SCC1CC(=O)Nc1ccccc1.Cl (stereo not shown) | 231.5 to 233 °C
COc1ccc(CNC(=O)CC2CSC(=NC3CCCCC3)N2C)cc1.Cl (stereo not shown) | 193 to 195 °C
CCOc1ccc(NC(=O)CC2CSC(=NC3CC3)N2C)cc1.Cl (stereo not shown) | 219 to 220 °C
CN1C(=NC2CC2)SCC1CC(=O)Nc1ccc(F)cc1.Cl (stereo not shown) | 252 to 253.5 °C
CN1C(=NC2CC2)SCC1CC(=O)Nc1ccc(F)cc1Cl.Cl (stereo not shown) | 237 to 239 °C
CN1C(=NC2CC2)SCC1CC(=O)Nc1ccc(CC#N)cc1.Cl (stereo not shown) | 245 to 245.5 °C
CN1C(=NC2CC2)SCC1CC(=O)Nc1ccc(Br)cc1.Cl (stereo not shown) | 227 to 228.5 °C
Cc1ccc(NC(=O)CC2CSC(=NC3CC3)N2C)c(Cl)c1.Cl (stereo not shown) | 212 to 212.5 °C
CN1C(=NC2CC2)SCC1CC(=O)Nc1cc(Cl)cc(Cl)c1.Cl (stereo not shown) | 260.5 to 261 °C
Cc1ccc(NC(=O)CC2CSC(=NC3CC3)N2C)c(F)c1.Cl (stereo not shown) | 199.5 to 200.5 °C
CN1C(=NC2CC2)SCC1CC(=O)Nc1ccc(F)cc1F.Cl (stereo not shown) | 245 to 246 °C
CN1C(=NC2CC2)SCC1CC(=O)Nc1cc(Cl)ccc1F.Cl (stereo not shown) | 233.5 to 234.5 °C
CN1C(=NC2CC2)SCC1CC(=O)Nc1cc([N+](=O)[O-])ccc1F.Cl (stereo not shown) | 237.5 to 238 °C
CN1C(=NC2CC2)SCC1CC(=O)Nc1ccc(Cl)cc1F.Cl (stereo not shown) | 237 to 237.5 °C
CN1C(=NC2CC2)SCC1CC(=O)Nc1ccc(Cl)cc1.Cl (stereo not shown) | 241.5 to 242.5 °C
CN1C(=NC2CC2)SCC1CC(=O)Nc1ccccc1.Cl (stereo not shown) | 240.5 to 241 °C
CC(C)c1ccc(NC(=O)CC2CSC(=NC3CC3)N2C)cc1.Cl (stereo not shown) | 238 to 238.5 °C
CN1C(=NC2CC2)SCC1CC(=O)NCc1ccc(F)cc1.Cl (stereo not shown) | 200.5 to 202.5 °C
CN1C(=NC2CC2)SCC1CC(=O)NCc1ccc(Cl)cc1.Cl (stereo not shown) | 225.5 to 227 °C
COc1ccc(CNC(=O)CC2CSC(=NC3CC3)N2C)cc1.Cl (stereo not shown) | 220.5 to 222 °C
CN1C(=NC2CCCC2)SCC1CC(=O)NCc1ccc(F)cc1.Cl (stereo not shown) | 160.5 to 162 °C

SMILES | melting point
COc1ccc(CNC(=O)CC2CSC(=NC3CCCC3)N2C)cc1.Cl (stereo not shown) | 172 to 173.5 °C
CN1C(=NCC2CCCCC2)SCC1CC(=O)Nc1ccc(Oc2ccccc2)cc1.Cl (stereo not shown) | 250.8 °C
Cc1ccc(NC(=O)CC2CSC(=NC3CCCCC3)N2C2CC2)cc1.Cl (stereo not shown) | 216.4 °C
CCN1C(=NC2CCCCC2)SCC1CC(=O)Nc1ccc(Cl)cc1.Cl (stereo not shown) | 218.3 °C
CCCN1C(=NC2CCCCC2)SCC1CC(=O)Nc1cc(C(F)(F)F)cc(C(F)(F)F)c1.Cl (stereo not shown) | 243.4 °C
Cl.O=C(CC1CSC(=NC2CCCCC2)N1Cc1ccccc1)Nc1cc(C(F)(F)F)cc(C(F)(F)F)c1 (stereo not shown) | 234.6 °C
Cl.O=C(CC1CSC(=NC2CCCCC2)N1Cc1ccccc1)Nc1ccc(Oc2ccccc2)cc1 (stereo not shown) | 209.5 °C
Cl.O=C(CC1CSC(=NC2CCCCC2)N1Cc1ccccc1)Nc1cc([N+](=O)[O-])ccc1F (stereo not shown) | 166.4 °C
CC(C)c1ccc(NC(=O)CC2CSC(=NC3CCCCC3)N2C2CCCCC2)cc1.Cl (stereo not shown) | 199.7 °C
Cl.O=C(CC1CSC(=NC2CCCCC2)N1C1CCCCC1)Nc1ccc(F)cc1 (stereo not shown) | 256 °C
Cc1ccc(NC(=O)CC2CSC(=NC3CCCCC3)N2C2CCCCC2)cc1Cl.Cl (stereo not shown) | 173 °C
Cl.O=C(CC1CSC(=NC2CCCCC2)N1C1CCCCC1)Nc1cc(Cl)ccc1F (stereo not shown) | 158 °C
Cl.O=C(CC1CSC(=NC2CCCCC2)N1C1CCCCC1)NCc1ccc(Cl)cc1 (stereo not shown) | 152 °C
CC(C)(C)c1ccc(NC(=O)CC2CSC(=NC3CCCCC3)N2C2CCCCC2)cc1.Cl (stereo not shown) | 244 °C
Cl.O=C(CC1CSC(=NC2CCCCC2)N1C1CCCCC1)Nc1cc(Cl)cc(Cl)c1 (stereo not shown) | 202 °C
CN1C(=NC2CCCCCC2)SCC1C(=O)Nc1ccccc1.Cl (stereo not shown) | 211.4 °C
CC1SC(=NC2CCCCC2)N(C)C1CC(=O)Nc1ccccc1.Cl (stereo not shown) | 231 to 234 °C
CC1SC(=NC2CCCCC2)N(C)C1CC(=O)Nc1ccc(C(C)(C)C)cc1.Cl (stereo not shown) | 255 to 257 °C
CC1SC(=NC2CCCC2)N(C)C1CC(=O)Nc1ccccc1.Cl (stereo not shown) | 186 to 188 °C
Cc1ccc(NC(=O)CC2C(C)SC(=NC3CCCC3)N2C)cc1.Cl (stereo not shown) | 228 to 229 °C
CC1SC(=NC2CCCCC2)N(C)C1CC(=O)Nc1ccc([N+](=O)[O-])cc1.Cl (stereo not shown) | 215 to 217 °C
CC1SC(=NC2CCCC2)N(C)C1CC(=O)Nc1ccccc1F.Cl (stereo not shown) | 153 °C
Br.CN1C(=NC2CCCCCC2)SCC1C(=O)Nc1cc([N+](=O)[O-])ccc1F (stereo not shown) | 264.8 °C
CN1C(=NC2CCCCCC2)SCC1C(=O)Nc1ccc(F)cc1.Cl (stereo not shown) | 265.3 °C
Br.CCc1ccc(NC(=O)C2CSC(=NC3CCCCCC3)N2C)cc1 (stereo not shown) | 278 to 279 °C
Br.Cc1ccc(NC(=O)C2CSC(=NC3CCCCCC3)N2C)cc1 (stereo not shown) | 278.9 °C
Br.CN1C(=NC2CCCCCC2)SCC1C(=O)Nc1cc(Cl)cc(Cl)c1 (stereo not shown) | 275.2 °C

SMILES | melting point
Br.CN1C(=NC2CCCCCC2)SCC1C(=O)Nc1ccc(Cl)cc1 (stereo not shown) | 286.5 °C
Br.CCCCc1ccc(NC(=O)C2CSC(=NC3CCCCCC3)N2C)cc1 (stereo not shown) | 240.8 °C
Br.CC(C)c1ccc(NC(=O)C2CSC(=NC3CCCCCC3)N2C)cc1 (stereo not shown) | 282.2 °C
Br.CN1C(=NC2CCCCCC2)SCC1C(=O)Nc1ccc(Oc2ccccc2)cc1 (stereo not shown) | 149.5 °C
Br.CN1C(=NC2CCCCCC2)SCC1C(=O)Nc1ccc(C(C)(C)C)cc1 (stereo not shown) | 169.9 °C
Br.CN1C(=NC2CCCCCC2)SCC1C(=O)Nc1cc(Cl)ccc1F (stereo not shown) | 262.2 °C
Br.CN1C(=NC2CCCCCC2)SCC1C(=O)Nc1cc(C(F)(F)F)cc(C(F)(F)F)c1 (stereo not shown) | 274.1 °C
CCCCN1C(=NC23CC4CC(CC(C4)C2)C3)SCC1CC(=O)Nc1cc(Cl)cc(Cl)c1.Cl (stereo not shown) | 164 °C
CCCCN1C(=NC23CC4CC(CC(C4)C2)C3)SCC1CC(=O)Nc1cc(CF)cc(CF)c1.Cl (stereo not shown) | 252 °C
CCCCN1C(=NC23CC4CC(CC(C4)C2)C3)SCC1CC(=O)Nc1ccc(Oc2ccccc2)cc1.Cl (stereo not shown) | 127 °C
CCCCc1ccc(NC(=O)CC2CSC(=NC34CC5CC(CC(C5)C3)C4)N2C(C)C)cc1.Cl (stereo not shown) | 178 °C
CCCCc1ccc(NC(=O)CC2CSC(=NC3C4CC5CC(C4)CC3C5)N2C)cc1.Cl (stereo not shown) | 127 °C
CC(C)c1ccc(NC(=O)CC2CSC(=NC3C4CC5CC(C4)CC3C5)N2C)cc1.Cl (stereo not shown) | 245 °C
CN1C(=NC2CCCCC2)SCC1CC(=O)Nc1ccc2c(c1)OCO2.Cl (stereo not shown) (hydrate or solvate) [KHG24086, (2-cyclohexylimino-3-methyl-1,3-thiazolidine-4-yl)-N-(3,4-methylenedioxyphenyl)-acetamide hydrochloride] | 146 to 147 °C
COc1ccc(NC(=O)CC2C(C)SC(=NC3CCCCC3)N2C)cc1 (stereo not shown) [KHG24481, (2-cyclohexylimino-3,5-dimethyl-1,3-thiazolidine-4-yl)-N-(4-methoxyphenyl)-acetamide] | 258 to 260 °C
COc1ccc(NC(=O)CC2C(C)SC(=NC3CCCCCC3)N2C)cc1 (stereo not shown) [KHG24485, (2-cycloheptylimino-3,5-dimethyl-1,3-thiazolidine-4-yl)-N-(4-methoxyphenyl)-acetamide] | 250 to 251 °C
CN1C(=NC2CCCCCC2)SCC1C(=O)Nc1ccccc1 (stereo not shown) [KHG24622, (2-cycloheptylimino-3-methyl-1,3-thiazolidine-4-yl)-N-phenyl-carboxamide] | 208 °C
CN1C(=NC2CCCCCC2)SCC1C(=O)Nc1ccccc1Cl (stereo not shown) [KHG24624, (2-cycloheptylimino-3-methyl-1,3-thiazolidine-4-yl)-N-(2-chlorophenyl)-carboxamide] | 198.4 °C
CN1C(=NC2CCCCCC2)SCC1C(=O)Nc1cc(F)ccc1F (stereo not shown) [KHG24625, (2-cycloheptylimino-3-methyl-1,3-thiazolidine-4-yl)-N-(2,5-difluorophenyl)-carboxamide] | 184.2 °C
CN1C(=NC2CCCCCC2)SCC1C(=O)Nc1ccc(F)cc1 (stereo not shown) [KHG24631, (2-cycloheptylimino-3-methyl-1,3-thiazolidine-4-yl)-N-(4-fluorophenyl)-carboxamide] | 169.6 °C
CN1C(=NC2CCCCCC2)SCC1C(=O)Nc1cc([N+](=O)[O-])ccc1F (stereo not shown) [KHG24661, (2-cycloheptylimino-3-methyl-1,3-thiazolidine-4-yl)-N-(2-fluoro-5-nitrophenyl)-carboxamide] | 151.1 °C
CCc1ccc(NC(=O)C2CSC(=NC3CCCCCC3)N2C)cc1 (stereo not shown) [KHG24664, (2-cycloheptylimino-3-methyl-1,3-thiazolidine-4-yl)-N-(4-ethylphenyl)-carboxamide] | 194 to 195 °C
CN1C(=NC2CCCCCC2)SCC1C(=O)Nc1cc(Cl)cc(Cl)c1 (stereo not shown) [KHG24674, (2-cycloheptylimino-3-methyl-1,3-thiazolidine-4-yl)-N-(3,5-dichlorophenyl)-carboxamide] | 191.2 °C
CN1C(=NC2CCCCCC2)SCC1C(=O)Nc1ccc(Cl)cc1 (stereo not shown) [KHG24677, (2-cycloheptylimino-3-methyl-1,3-thiazolidine-4-yl)-N-(4-chlorophenyl)-carboxamide] | 199.7 °C
CC(C)c1ccc(NC(=O)C2CSC(=NC3CCCCCC3)N2C)cc1 (stereo not shown) [KHG24680, (2-cycloheptylimino-3-methyl-1,3-thiazolidine-4-yl)-N-(4-isopropylphenyl)-carboxamide] | 207.6 °C
